According to ChEMBL document CHEMBL1130335, “Comparative molecular field analysis of a series of paclitaxel analogues” (J Med Chem, 1997):

Assay: Measured activity expressed as ID50 (analogue)/ID50 (paclitaxel), where ID50 is the concentration of compound leading to 50% inhibition of the rate microtubule disassembly
Assay type: functional

Row | Structure (SMILES) | Activity
1 | CC(=O)O[C@@]12COC1C[C@H](O)[C@@]1(C)C(=O)C[C@@]34O[C@]3(C)[C@@H](OC(=O)[C@H](O)[C@@H](NC(=O)c3ccccc3)c3ccccc3)C[C@@](O)([C@@H](OC(=O)c3ccccc3)[C@@H]12)C4(C)C (stereo partly drawn) | 0.66
2 | CC(=O)O[C@H]1C(=O)[C@]2(C)[C@@H](O)CC3OC[C@@]3(OC(C)=O)[C@H]2[C@H](OC(=O)c2ccccc2)[C@]2(O)C[C@H](OC(=O)[C@H](O)[C@H](NC(=O)c3ccccc3)c3ccc(Cl)c(Cl)c3)C(C)=C1C2(C)C (stereo partly drawn) | 7.1
3 | CC(=O)O[C@@]12COC1C[C@H](O)[C@@]1(C)C(=O)[C@H](O)C3=C(C)[C@@H](OC(=O)CCc4ccccc4)C[C@@](O)([C@@H](OC(=O)c4ccccc4)[C@@H]12)C3(C)C (stereo partly drawn) | 17
4 | CC(=O)O[C@@]12COC1C[C@H](O)[C@@]1(C)C(=O)[C@H](O)C3=C(C)[C@@H](OC(=O)[C@H](O)[C@H](NC(=O)OC(C)(C)C)c4ccccc4)C[C@@](O)([C@@H](OC(=O)c4ccccc4)[C@@H]12)C3(C)C (stereo partly drawn) | 0.6
5 | CO[C@H]1[C@H](OC(C)=O)C2=C(C)[C@@H](OC(=O)[C@H](O)[C@@H](NC(=O)OC(C)(C)C)c3ccccc3)C[C@@](O)([C@@H](OC(=O)c3ccccc3)[C@H]3[C@@]1(C)[C@@H](O)CC1OC[C@]13OC(C)=O)C2(C)C (stereo partly drawn) | 0.51
6 | CC(=O)O[C@H]1C(=O)[C@]2(C)[C@@H](O)CC3OC[C@@]3(OC(C)=O)[C@H]2[C@H](OC(=O)c2ccccc2)[C@]2(O)C[C@H](OC(=O)[C@H](O)[C@H](NC(=O)OC(C)(C)C)c3ccccc3)C(C)=C1C2(C)C (stereo partly drawn) | 0.5
7 | CC(=O)O[C@@]12COC1C[C@H](O)[C@@]1(C)C(=O)[C@H](O)C3=C(C)[C@@H](OC(=O)[C@@H](NC(=O)c4ccccc4)[C@@H](O)c4ccccc4)C[C@@](O)([C@@H](OC(=O)c4ccccc4)[C@@H]12)C3(C)C (stereo partly drawn) | 170
8 | CC(=O)O[C@H]1C(=O)[C@]2(C)[C@@H](O)CC3OC[C@@]3(OC(C)=O)[C@H]2[C@H](OC(=O)c2ccccc2)[C@]2(O)C[C@H](OC(=O)[C@H](O)[C@@H](NC(=O)c3ccccc3)C3CCCCC3)C(C)=C1C2(C)C (stereo partly drawn) | 0.29
